ChEMBL document CHEMBL3608213, “Inhibitors of the Epidermal Growth Factor Receptor (EGFR) May Provide Effective Treatment for Lung Adenocarcinoma” (ACS Med Chem Lett, 2015)

Columns and labels:
[1] = molecular target: T1, Epidermal growth factor receptor (Homo sapiens, UniProt P00533); assay: Inhibition of EGFR deletion/T790M mutant in human PC9-DRH cells assessed as inhibition of phosphorylation at Y1068 after 2 hrs by sandwich ELISA method; format: cell-based
Target sequence in this assay (P00533 25-1210 limits assumed, stated change not applied): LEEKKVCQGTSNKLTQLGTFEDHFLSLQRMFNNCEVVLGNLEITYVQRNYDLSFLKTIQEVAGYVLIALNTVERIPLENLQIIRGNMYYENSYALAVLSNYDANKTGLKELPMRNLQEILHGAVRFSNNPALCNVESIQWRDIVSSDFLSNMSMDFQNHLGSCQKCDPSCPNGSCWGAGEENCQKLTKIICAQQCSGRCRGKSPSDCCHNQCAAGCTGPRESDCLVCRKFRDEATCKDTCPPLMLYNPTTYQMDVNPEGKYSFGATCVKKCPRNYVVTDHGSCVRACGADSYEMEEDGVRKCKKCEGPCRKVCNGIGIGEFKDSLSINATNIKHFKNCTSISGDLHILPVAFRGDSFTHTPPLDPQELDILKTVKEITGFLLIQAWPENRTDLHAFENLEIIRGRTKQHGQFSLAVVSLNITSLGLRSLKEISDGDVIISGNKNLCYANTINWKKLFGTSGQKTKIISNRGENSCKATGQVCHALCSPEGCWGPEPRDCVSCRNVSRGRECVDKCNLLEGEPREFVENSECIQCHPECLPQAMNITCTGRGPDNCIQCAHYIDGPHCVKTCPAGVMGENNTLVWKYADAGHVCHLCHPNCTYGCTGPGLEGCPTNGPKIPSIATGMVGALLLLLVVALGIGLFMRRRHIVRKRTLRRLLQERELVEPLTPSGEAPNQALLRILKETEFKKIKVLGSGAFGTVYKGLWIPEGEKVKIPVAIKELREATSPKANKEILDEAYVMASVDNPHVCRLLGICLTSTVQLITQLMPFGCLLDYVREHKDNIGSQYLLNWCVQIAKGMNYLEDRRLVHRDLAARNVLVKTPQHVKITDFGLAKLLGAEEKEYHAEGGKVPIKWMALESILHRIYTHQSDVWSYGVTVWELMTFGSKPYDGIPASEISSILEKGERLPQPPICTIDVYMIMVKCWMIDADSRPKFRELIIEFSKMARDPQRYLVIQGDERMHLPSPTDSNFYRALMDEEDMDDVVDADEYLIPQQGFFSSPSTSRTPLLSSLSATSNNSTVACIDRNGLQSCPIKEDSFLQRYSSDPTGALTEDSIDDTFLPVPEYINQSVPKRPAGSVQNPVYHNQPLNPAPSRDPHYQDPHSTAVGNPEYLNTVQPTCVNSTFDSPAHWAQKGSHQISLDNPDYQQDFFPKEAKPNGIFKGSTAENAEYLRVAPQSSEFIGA

[2] = molecular target: Epidermal growth factor receptor (Homo sapiens, UniProt P00533, E746-A750DEL); assay: Inhibition of EGFR E746-A750 deletion mutant in human PC9 cells assessed as inhibition of phosphorylation at Y1068 after 2 hrs by sandwich ELISA method; format: cell-based, PC-9
[3] = molecular target: T1, Epidermal growth factor receptor; assay: Inhibition of wild type EGFR in human A549 cells assessed as inhibition of phosphorylation at Y1068 after 2 hrs by sandwich ELISA method; format: cell-based
Target sequence in this assay (P00533 whole entry): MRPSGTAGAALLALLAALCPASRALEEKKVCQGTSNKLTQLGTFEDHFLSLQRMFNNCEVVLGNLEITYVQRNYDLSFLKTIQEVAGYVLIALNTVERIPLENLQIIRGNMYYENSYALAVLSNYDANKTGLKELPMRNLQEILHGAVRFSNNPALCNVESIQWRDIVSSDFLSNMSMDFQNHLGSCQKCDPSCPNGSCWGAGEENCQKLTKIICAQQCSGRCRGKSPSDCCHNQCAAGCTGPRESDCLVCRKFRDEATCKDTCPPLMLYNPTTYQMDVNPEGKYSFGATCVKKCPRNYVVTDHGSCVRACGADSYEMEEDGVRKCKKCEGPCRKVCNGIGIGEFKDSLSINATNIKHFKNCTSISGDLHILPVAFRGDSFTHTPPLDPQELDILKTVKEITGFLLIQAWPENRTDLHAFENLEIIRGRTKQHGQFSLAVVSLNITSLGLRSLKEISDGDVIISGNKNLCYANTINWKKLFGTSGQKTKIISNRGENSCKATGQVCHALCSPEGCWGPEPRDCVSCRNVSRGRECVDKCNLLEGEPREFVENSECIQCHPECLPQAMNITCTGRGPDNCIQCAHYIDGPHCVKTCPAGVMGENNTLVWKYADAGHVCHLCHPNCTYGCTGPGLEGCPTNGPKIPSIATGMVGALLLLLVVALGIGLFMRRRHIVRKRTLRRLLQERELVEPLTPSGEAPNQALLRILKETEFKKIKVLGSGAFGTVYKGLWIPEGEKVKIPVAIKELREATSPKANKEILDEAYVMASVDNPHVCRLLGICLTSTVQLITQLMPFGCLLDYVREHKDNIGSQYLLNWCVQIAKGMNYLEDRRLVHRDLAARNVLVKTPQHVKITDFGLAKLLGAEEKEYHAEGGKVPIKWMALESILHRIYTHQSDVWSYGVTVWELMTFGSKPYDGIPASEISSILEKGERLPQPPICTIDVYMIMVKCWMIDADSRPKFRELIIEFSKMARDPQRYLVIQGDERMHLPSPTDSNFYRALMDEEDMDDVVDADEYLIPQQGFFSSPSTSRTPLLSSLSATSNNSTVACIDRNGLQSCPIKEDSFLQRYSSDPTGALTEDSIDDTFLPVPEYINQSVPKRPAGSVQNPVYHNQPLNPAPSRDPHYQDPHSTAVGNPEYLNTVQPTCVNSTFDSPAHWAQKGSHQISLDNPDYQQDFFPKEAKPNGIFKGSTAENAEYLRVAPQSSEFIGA

Epidermal growth factor receptor (Homo sapiens, UniProt P00533, E746-A750DEL), sequence (P00533 whole entry E746-A750del, looked up): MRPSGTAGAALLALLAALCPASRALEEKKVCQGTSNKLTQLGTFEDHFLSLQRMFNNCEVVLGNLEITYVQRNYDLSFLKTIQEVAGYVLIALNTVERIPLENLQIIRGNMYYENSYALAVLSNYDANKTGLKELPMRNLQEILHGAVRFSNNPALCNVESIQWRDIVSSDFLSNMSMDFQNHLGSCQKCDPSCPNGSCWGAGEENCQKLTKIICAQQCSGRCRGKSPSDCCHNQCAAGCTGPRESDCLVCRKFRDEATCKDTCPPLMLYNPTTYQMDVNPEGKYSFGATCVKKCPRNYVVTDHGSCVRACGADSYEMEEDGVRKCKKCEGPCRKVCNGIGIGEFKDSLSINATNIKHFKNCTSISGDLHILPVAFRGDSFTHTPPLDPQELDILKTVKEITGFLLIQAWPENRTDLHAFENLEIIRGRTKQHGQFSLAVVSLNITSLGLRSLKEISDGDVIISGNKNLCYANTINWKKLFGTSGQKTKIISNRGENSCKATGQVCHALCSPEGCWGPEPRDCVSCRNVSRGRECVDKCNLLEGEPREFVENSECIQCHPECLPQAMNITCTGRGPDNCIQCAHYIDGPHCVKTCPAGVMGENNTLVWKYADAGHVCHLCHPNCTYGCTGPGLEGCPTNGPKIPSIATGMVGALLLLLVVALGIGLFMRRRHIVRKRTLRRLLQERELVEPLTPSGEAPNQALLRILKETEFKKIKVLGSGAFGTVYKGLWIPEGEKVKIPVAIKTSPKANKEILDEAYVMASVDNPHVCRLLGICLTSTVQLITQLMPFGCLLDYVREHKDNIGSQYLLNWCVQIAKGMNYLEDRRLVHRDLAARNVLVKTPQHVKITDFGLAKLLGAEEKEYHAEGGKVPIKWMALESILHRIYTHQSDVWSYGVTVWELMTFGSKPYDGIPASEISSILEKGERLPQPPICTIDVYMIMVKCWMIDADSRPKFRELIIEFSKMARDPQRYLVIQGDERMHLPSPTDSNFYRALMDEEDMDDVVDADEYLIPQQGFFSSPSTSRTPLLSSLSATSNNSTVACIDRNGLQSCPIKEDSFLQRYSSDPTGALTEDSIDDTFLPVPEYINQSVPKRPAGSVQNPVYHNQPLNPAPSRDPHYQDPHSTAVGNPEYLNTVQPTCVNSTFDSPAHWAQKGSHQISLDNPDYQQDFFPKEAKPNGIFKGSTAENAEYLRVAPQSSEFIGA

IC50 [1] [nM]	IC50 [2] [nM]	IC50 [3] [µM]	Structure (SMILES)
18	8	–	C=CC(=O)N1C[C@@H]2CN(c3nc(Nc4ccc(N5CCN(C)CC5)cc4)c4ncn(C(C)C)c4n3)C[C@@H]2C1
2130	6650	10	C=CC(=O)N[C@@H]1CN(c2nc(Nc3cn(C)nc3C)c3ncn(C(C)C)c3n2)C[C@H]1F
–	31	–	C=CC(=O)N[C@H]1CCN(c2nc(Nc3ccc(N4CCN(C)CC4)cc3)c3ncn(CCO)c3n2)C1
1	6	–	C=CC(=O)N[C@@H]1CN(c2nc(Nc3cn(CC)nc3OC)c3ncn(C)c3n2)C[C@H]1F
